Tests used:
[1] = system: ras proteins; experiment: Methylation of immunoprecipitated ras proteins in intact ras-transformed rat1 cells; assay type: cell-based, rat; conditions: 100 μM, FIG. 4
Description: HEC1A, rail, ras-transformed rail and B16F10 melanoma cells were also used for metabolic labelling of endogenous proteins with 100-300 μCi/ml [methyl-^3H]methionine which was also indicative of PPMTase activity. Metabolic labelling procedures were as detailed elsewhere (Hakiai et al., supra. (1991); Lenner et al., supra. (1992)), and immunoprecipitation of ras with Y13-159 Ab were as detailed by Clarke et al. (Proc. Natl. Acad. Sci. USA, 85, 4643-4647 (1988)).
While the above Table II determines the PPMTase activity by assaying the methylation of a synthetic substrate, FIG. 3 determines this activity by methylation of various endogenous ras-like prenylated GTP-binding proteins present in intact HEC1A, ras-transformed rat1 and melanoma cells, with and without 100 μM of FTA or FTS. […] Use of [α-P^32]

[2] = system: Ha-ras transformed rat1 (EJ) cells; experiment: Tumor growth in nude mice implanted with Ha-ras-transformed rat1 cells; assay type: in vivo, nude mice (CD1-Nu)
Procedure: Male nude mice (CD1—Nu) were obtained from the Weizmann Institute of Science, Rehovot, Israel. Groups of 5 to 8 mice (3-4 weeks old, 25±2 gr body weight) were used in each experiment for both; controls and FTS treatment. Cells (Ha-ras transformed rat1 (EJ) cells, 2×10^6 cells in 100 μl PBS) were injected systematically (s.c.). Cell implantation and drug administration began on the same day. The EJ cells were prepared from confluent cultures. Cells were detached with trypsin/EDTA, washed with DMEM/10% FCS followed by 3 times PBS washes. A suspension of 2×10^7 cells/ml was prepared and used for experiment within 15-30 min. of preparation.
FTS was prepared as a stock solution (0.225M) in ethanol. It was diluted just prior to the drug administration with PBS to yield a solution of 1.35 mM FTS, 0.6% ethanol. Under these conditions FTS remained in solution for the period of time required for administration.
Experimental mice received 100 μl of the FTS solution, respectively, daily or every other day. Controls received the appropriate administration of 0.6% ethanol in PBS. Tumor growth was monitored by daily observations and by size measurement using a millimetric caliper (two dimensions of the tumor size were taken usually twice a week).
Data were expressed in terms of tumor size (cm^2) in each mouse as a function of time.
Ha-ras transformed rat1 cells (2×10^6) were implanted beneath the skin of the right hind leg of nude mice. The mice received a systemic s.c. injection of either the solvent (0.6% ethanol in PBS) or FTS, starting on the day of cell implantations. Two sets of experiments were performed. In the one set the mice received 3.6 mg/kg FTS daily. Tumors sizes measured every 3-4 days beginning on day 10 of the experiment. […] Out of the 8 control mice, 6 developed tumors having a size of 4 cm^2 or greater and 2 developed tumors of 2 cm^2 or less. In another set of experiments mice received 1.6 mg/kg FTS every other day.

Compound: CC(C)=CCC/C(C)=C/CC/C(C)=C/CSc1ccccc1C(=O)O [FTS, (3,7,11-trimethyl-dodeca-2,6,10-trienyl)-2-thiobenzoic acid]
- inhibition of methylation of ras proteins [1]: inhibits
- effect on tumor growth ([2]; 1.6 mg/kg every other day, FIG. 13): inhibitory effects
- mice out of 8 that developed tumors of 2 cm2 or less ([2]; 3.6 mg/kg daily, systemic s.c.): 6
- mice out of 8 that developed tumors of greater than 4 cm2 ([2]; 3.6 mg/kg daily, systemic s.c.): 2
- effect on tumor growth ([2]; 3.6 mg/kg daily, systemic s.c., FIG. 12): profound inhibition of tumor growth
